Measured values published in US9115127B2 (AMGEN INC., priority 2010, dated 2015).
pIC50: −log10 of the molar value. Where two headings read alike, the source gives them in different places.

Molecular target: T1, wild-type human ALK (cytoplasmic domain, amino acids 1058-1620, N-terminal GST fusion) (Homo sapiens, UniProt Q9UM73)
T1 construct: The cytoplasmic domain (amino acids 1058-1620) of wild-type human ALK; GST (N); made in house; host or cells: SF9 insect cells
Experiment: ALK Inhibition in Enzyme Assay (Lance TR-FRET kinase assay)
Assay type: biochemical
Outline: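 Purified enzyme phosphorylated a biotinylated peptide substrate for 90 minutes at room temperature. Reactions were stopped with 20 mM EDTA in 50 mM Tris (pH 7.5), 100 mM NaCl, 0.05% BSA, 0.1% Tween-20. Phosphopeptide was detected by TR-FRET with SA-APC and Eu-W1024 anti-phosphotyrosine antibody PT66, excitation 320 nm.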

T1 sequence (Q9UM73 1058-1620): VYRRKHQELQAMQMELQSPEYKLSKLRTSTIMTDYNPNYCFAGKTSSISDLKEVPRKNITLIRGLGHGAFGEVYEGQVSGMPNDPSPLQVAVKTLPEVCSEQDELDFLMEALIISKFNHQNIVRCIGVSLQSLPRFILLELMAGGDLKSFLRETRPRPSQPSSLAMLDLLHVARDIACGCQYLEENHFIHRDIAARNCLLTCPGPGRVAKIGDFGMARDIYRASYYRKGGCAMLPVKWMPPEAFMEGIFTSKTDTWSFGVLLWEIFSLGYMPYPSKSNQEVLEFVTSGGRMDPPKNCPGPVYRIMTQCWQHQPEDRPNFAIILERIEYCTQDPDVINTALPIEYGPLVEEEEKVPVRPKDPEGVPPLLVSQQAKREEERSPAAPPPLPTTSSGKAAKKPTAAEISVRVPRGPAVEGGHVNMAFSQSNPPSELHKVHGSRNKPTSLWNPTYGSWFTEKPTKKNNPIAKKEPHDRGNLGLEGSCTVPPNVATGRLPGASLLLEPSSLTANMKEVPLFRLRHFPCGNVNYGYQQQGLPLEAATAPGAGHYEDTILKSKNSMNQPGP

Compound | pIC50 | pIC50 (2 nM enzyme, ATP 40 μM (Km apparent), 90 minutes at room temperature, mean of three replicates)
CC(C)NC(=O)[C@H]1CC[C@@H](n2/c(=N/C(=O)c3cccnc3)[nH]c3cnc(OCCN4CCCCC4)cc32)CC1 [Example 96, (E)-N-(1-(cis-4-(Isopropylcarbamoyl)cyclohexyl)-6-(2-(piperidin-1-yl)ethoxy)-1H-imidazo[4,5-c]pyridin-2(3H)-ylidene)nicotinamide] | > 7.30 | –
CC(C)NC(=O)[C@H]1CC[C@@H](n2/c(=N/C(=O)c3ccnnc3)[nH]c3cnc(OCCN4CCCCC4)cc32)CC1 [Example 97, (E)-N-(1-(cis-4-(Isopropylcarbamoyl)cyclohexyl)-6-(2-(piperidin-1-yl)ethoxy)-1H-imidazo[4,5-c]pyridin-2(3H)-ylidene)pyridazine-4-carboxamide] | 7.00 to 7.30 | –
CC(C)NC(=O)[C@H]1CC[C@@H](n2/c(=N/C(=O)c3cc(F)cc(F)c3)[nH]c3cnc(OCCN4CCCCC4)cc32)CC1 [Example 98, (E)-3,5-Difluoro-N-(1-(cis-4-(isopropylcarbamoyl)cyclohexyl)-6-(2-(piperidin-1-yl)ethoxy)-1H-imidazo[4,5-c]pyridin-2(3H)-ylidene)benzamide] | > 7.30 | –
C=CCNS(=O)(=O)c1cccc(C(=O)/N=c2\[nH]c3cnc(OCCN4CCCCC4)cc3n2[C@H]2CC[C@@H](C(=O)NC(C)C)CC2)c1 [Example 99, (E)-3-(N-Allylsulfamoyl)-N-(1-(cis-4-(isopropylcarbamoyl)cyclohexyl)-6-(2-(piperidin-1-yl)ethoxy)-1H-imidazo[4,5-c]pyridin-2(3H)-ylidene)benzamide] | 6.00 to 7.00 | –
COc1ccc(C(=O)/N=c2\[nH]c3cnc(OCCN4CCCCC4)cc3n2[C@H]2CC[C@@H](C(=O)NC(C)C)CC2)cc1 [Example 100, (E)-N-(1-(cis-4-(Isopropylcarbamoyl)cyclohexyl)-6-(2-(piperidin-1-yl)ethoxy)-1H-imidazo[4,5-c]pyridin-2(3H)-ylidene)-4-methoxybenzamide] | 7.00 to 7.30 | –
CC(C)NC(=O)[C@H]1CC[C@@H](n2/c(=N/C(=O)c3ccc(C#N)c(F)c3)[nH]c3cnc(OCCN4CCCCC4)cc32)CC1 [Example 103, (E)-4-Cyano-3-fluoro-N-(1-(cis-4-(isopropylcarbamoyl)cyclohexyl)-6-(2-(piperidin-1-yl)ethoxy)-1H-imidazo[4,5-c]pyridin-2(3H)-ylidene)benzamide] | > 7.30 | –
CC(C)NC(=O)[C@H]1CC[C@@H](n2/c(=N/C(=O)c3ccc4cc[nH]c4c3)[nH]c3cnc(OCCN4CCCCC4)cc32)CC1 [Example 104, (E)-N-(1-(cis-4-(Isopropylcarbamoyl)cyclohexyl)-6-(2-(piperidin-1-yl)ethoxy)-1H-imidazo[4,5-c]pyridin-2(3H)-ylidene)-1H-indole-6-carboxamide] | 6.00 to 7.00 | –
CNc1ccc(C(=O)/N=c2\[nH]c3cnc(OCCN4CCCCC4)cc3n2[C@H]2CC[C@@H](C(=O)NC(C)C)CC2)cc1 [Example 105, (E)-N-(1-(cis-4-(Isopropylcarbamoyl)cyclohexyl)-6-(2-(piperidin-1-yl)ethoxy)-1H-imidazo[4,5-c]pyridin-2(3H)-ylidene)-4-(methylamino)benzamide] | 5.30 to 6.00 | –
CC(C)NC(=O)[C@H]1CC[C@@H](n2/c(=N/C(=O)c3ccc(F)c(F)c3)[nH]c3cnc(OCCN4CCCCC4)cc32)CC1 [Example 107, (E)-3,4-Difluoro-N-(1-(cis-4-(isopropylcarbamoyl)cyclohexyl)-6-(2-(piperidin-1-yl)ethoxy)-1H-imidazo[4,5-c]pyridin-2(3H)-ylidene)benzamide] | > 7.30 | –
CC(C)NC(=O)[C@H]1CC[C@@H](n2/c(=N/C(=O)c3cc(F)cc(C#N)c3)[nH]c3cnc(OCCN4CCCCC4)cc32)CC1 [Example 111, (E)-3-Cyano-5-fluoro-N-(1-(cis-4-(isopropylcarbamoyl)cyclohexyl)-6-(2-(piperidin-1-yl)ethoxy)-1H-imidazo[4,5-c]pyridin-2(3H)-ylidene)benzamide] | > 7.30 | –
CC(C)NC(=O)[C@H]1CC[C@@H](n2/c(=N/C(=O)C3CCCCC3)[nH]c3cnc(OCCN4CCCCC4)cc32)CC1 [Example 112, cis-4-((E)-2-(Cyclohexanecarbonylimino)-6-(2-(piperidin-1-yl)ethoxy)-2,3-dihydro-1H-imidazo[4,5-c]pyridin-1-yl)-N-isopropylcyclohexanecarboxamide] | 5.00 to 5.30 | –
COc1cc(C(=O)/N=c2\[nH]c3cnc(OCCN4CCCCC4)cc3n2[C@H]2CC[C@@H](C(=O)NC(C)C)CC2)ccc1F [Example 113, (E)-4-Fluoro-N-(1-(cis-4-(isopropylcarbamoyl)cyclohexyl)-6-(2-(piperidin-1-yl)ethoxy)-1H-imidazo[4,5-c]pyridin-2(3H)-ylidene)-3-methoxybenzamide] | 6.00 to 7.00 | –
CC(C)NC(=O)[C@H]1CC[C@@H](n2/c(=N/C(=O)c3ccc(F)c(C(F)(F)F)c3)[nH]c3cnc(OCCN4CCCCC4)cc32)CC1 [Example 114, (E)-4-Fluoro-N-(1-(cis-4-(isopropylcarbamoyl)cyclohexyl)-6-(2-(piperidin-1-yl)ethoxy)-1H-imidazo[4,5-c]pyridin-2(3H)-ylidene)-3-(trifluoromethyl)benzamide] | 7.00 to 7.30 | –
CC(C)NC(=O)[C@H]1CC[C@@H](n2/c(=N/C(=O)c3cc(F)cc(Cl)c3)[nH]c3cnc(OCCN4CCCCC4)cc32)CC1 [Example 115, (E)-3-Chloro-5-fluoro-N-(1-(cis-4-(isopropylcarbamoyl)cyclohexyl)-6-(2-(piperidin-1-yl)ethoxy)-1H-imidazo[4,5-c]pyridin-2 (3H)-ylidene)benzamide] | > 7.30 | –
COc1cc(F)cc(C(=O)/N=c2\[nH]c3cnc(OCCN4CCCCC4)cc3n2[C@H]2CC[C@@H](C(=O)NC(C)C)CC2)c1 [Example 117, (E)-3-Fluoro-N-(1-(cis-4-(isopropylcarbamoyl)cyclohexyl)-6-(2-(piperidin-1-yl)ethoxy)-1H-imidazo[4,5-c]pyridin-2(3H)-ylidene)-5-methoxybenzamide] | 7.00 to 7.30 | –
CC(C)NC(=O)[C@H]1CC[C@@H](n2/c(=N/C(=O)c3ccc(F)c(Cl)c3)[nH]c3cnc(OCCN4CCCCC4)cc32)CC1 [Example 118, (E)-3-Chloro-4-fluoro-N-(1-(cis-4-(isopropylcarbamoyl)cyclohexyl)-6-(2-(piperidin-1-yl)ethoxy)-1H-imidazo[4,5-c]pyridin-2(3H)-ylidene)benzamide] | – | > 7.30
CC(C)NC(=O)[C@H]1CC[C@@H](n2/c(=N/C(=O)c3cccc(Cl)c3)[nH]c3cnc(OCCN4CCCCC4)cc32)CC1 [Example 119, (E)-3-Chloro-N-(1-(cis-4-(isopropylcarbamoyl)cyclohexyl)-6-(2-(piperidin-1-yl)ethoxy)-1H-imidazo[4,5-c]pyridin-2(3H)-ylidene)benzamide] | > 7.30 | –

More lines, now with the values ahead:

pIC50 | pIC50 (2 nM enzyme, ATP 40 μM (Km apparent), 90 minutes at room temperature, mean of three replicates) | Compound
> 7.30 | – | CC(C)NC(=O)[C@H]1CC[C@@H](n2/c(=N/C(=O)c3ccc(Br)cc3)[nH]c3cnc(OCCN4CCCCC4)cc32)CC1 [Example 95, (E)-4-Bromo-N-(1-(cis-4-(isopropylcarbamoyl)cyclohexyl)-6-(2-(piperidin-1-yl)ethoxy)-1H-imidazo[4,5-c]pyridin-2(3H)-ylidene)benzamide]
> 7.30 | – | CC(C)NC(=O)[C@H]1CC[C@@H](n2/c(=N/C(=O)c3ccc(F)c(Cl)c3)[nH]c3cnc(OCCN4CCCCC4)cc32)CC1 [Example 101, (E)-3-Chloro-4-fluoro-N-(1-(cis-4-(isopropylcarbamoyl)cyclohexyl)-6-(2-(piperidin-1-yl)ethoxy)-1H-imidazo[4,5-c]pyridin-2(3H)-ylidene)benzamide]
6.00 to 7.00 | – | CC(C)NC(=O)[C@H]1CC[C@@H](n2/c(=N/C(=O)c3ccc(C(F)(F)F)cc3)[nH]c3cnc(OCCN4CCCCC4)cc32)CC1 [Example 102, (E)-N-(1-(cis-4-(Isopropylcarbamoyl)cyclohexyl)-6-(2-(piperidin-1-yl)ethoxy)-1H-imidazo[4,5-c]pyridin-2(3H)-ylidene)-4-(trifluoromethyl)benzamide]
> 7.30 | – | CC(C)NC(=O)[C@H]1CC[C@@H](n2/c(=N/C(=O)c3ccnc(F)c3)[nH]c3cnc(OCCN4CCCCC4)cc32)CC1 [Example 106, (E)-2-Fluoro-N-(1-(cis-4-(isopropylcarbamoyl)cyclohexyl)-6-(2-(piperidin-1-yl)ethoxy)-1H-imidazo[4,5-c]pyridin-2(3H)-ylidene)isonicotinamide]
> 7.30 | – | CC(C)NC(=O)[C@H]1CC[C@@H](n2/c(=N/C(=O)c3cccc(F)c3)[nH]c3cnc(OCCN4CCCCC4)cc32)CC1 [Example 108, (E)-3-Fluoro-N-(1-(cis-4-(isopropylcarbamoyl)cyclohexyl)-6-(2-(piperidin-1-yl)ethoxy)-1H-imidazo[4,5-c]pyridin-2(3H)-ylidene)benzamide]
5.30 to 6.00 | – | CC(C)NC(=O)[C@H]1CC[C@@H](n2/c(=N/C(=O)c3ccc4ccn(C)c4c3)[nH]c3cnc(OCCN4CCCCC4)cc32)CC1 [Example 109, (E)-N-(1-(cis-4-(Isopropylcarbamoyl)cyclohexyl)-6-(2-(piperidin-1-yl)ethoxy)-1H-imidazo[4,5-c]pyridin-2(3H)-ylidene)-1-methyl-1H-indole-6-carboxamide]
5.30 to 6.00 | – | CC(C)NC(=O)[C@H]1CC[C@@H](n2/c(=N/C(=O)c3ccccn3)[nH]c3cnc(OCCN4CCCCC4)cc32)CC1 [Example 110, (E)-N-(1-(cis-4-(Isopropylcarbamoyl)cyclohexyl)-6-(2-(piperidin-1-yl)ethoxy)-1H-imidazo[4,5-c]pyridin-2(3H)-ylidene)picolinamide]
7.00 to 7.30 | – | COc1cccc(C(=O)/N=c2\[nH]c3cnc(OCCN4CCCCC4)cc3n2[C@H]2CC[C@@H](C(=O)NC(C)C)CC2)c1 [Example 116, (E)-N-(1-(cis-4-(Isopropylcarbamoyl)cyclohexyl)-6-(2-(piperidin-1-yl)ethoxy)-1H-imidazo[4,5-c]pyridin-2(3H)-ylidene)-3-methoxybenzamide]
